From patent US20230399324A1, “AGENTS FOR TREATING DISORDERS INVOLVING RYANODINE RECEPTORS” (ARMGO Pharma, Inc., priority 2020, published 2023)
“And” between values parts separate entries of the source, which are not always exact repeats. Equal entries are not always repeated. “Also recorded” adds a separate entry of the source. Where two headings read alike, the source gives them in different places. Each block holds one compound with its values, some of them ahead of it.

Key:
[1] = test system: cardiomyocytes isolated from mouse heart; experiment: Inhibition of unstimulated calcium release events in cardiomyocytes (isoproterenol-induced); format: cell-based, C57BL/6 mice; settings: Cardiomyocyte, 10 μM compound, isoproterenol 1 uM, percent inhibition of controls B vs A
Procedure: Compounds of the disclosure were evaluated for an effect on isoproterenol-induced inhibition of unstimulated calcium release events in cardiomyocytes isolated from mouse heart.
Adult cardiomyocytes are isolated from female, 28-32 grams C57BL/6 mice using a perfusion solution containing Liberase TH (Sigma Aldrich, #05-401-151001). After isolation, Ca^2+ is reintroduced in 5 steps at 4 min intervals. Then cells are plating (Time Cero) with a density of 5000-7000 rod cells in 100 μl of Cardiomyocyte Culture Medium (MEM, Invitrogen, #11575-032) containing Blebbistatin and compound treatment at various concentrations (0.01 to 10 uM). After 1 hrs of compound treatment cells are treated with Isoproterenol (1 uM). After 2 hrs of compound treatment cells are loaded with a Ca^2+ indicator (Fluo-4-AM, Invitrogen #F14202). After 3 hrs of compound treatment MEM is quickly but gently removed and the cells re-suspended in recording solution (Ca^2+ 2 mM, Isoproterenol 1 uM) for field stimulations using custom-designed electrodes. Cells are stimulated for 20 seconds at 0.5 Hz, then for 5 seconds at 5 Hz.
One Study=3 experiments. One experiment=1 mouse. Each experiment has 3 controls in triplicate: • A) Ca^2+ • B) Ca^2++Isoproterenol • C) Ca^2++Isoproterenol+Control Compound.
The first step in the analysis is to determine the number of responders based on four conditions. Responders are then analyzed to determine the number of unstimulated calcium release events, which are peaks of sufficient intensity, measured in the post-5 Hz stimulation period. Effect of test compounds (Ca^2++Isoproterenol+Test Compound in triplicate) are expressed as a percent inhibition of the controls B vs A.
All compounds were tested at 10 μM.

[2] = target: T1, RyR2 (Homo sapiens, UniProt Q92736); experiment: 35S-labelled Calstabin2 binding to human HD cortex microsomes, dose curve; settings: FIG. 2
Target sequence in this assay (Q92736 whole entry): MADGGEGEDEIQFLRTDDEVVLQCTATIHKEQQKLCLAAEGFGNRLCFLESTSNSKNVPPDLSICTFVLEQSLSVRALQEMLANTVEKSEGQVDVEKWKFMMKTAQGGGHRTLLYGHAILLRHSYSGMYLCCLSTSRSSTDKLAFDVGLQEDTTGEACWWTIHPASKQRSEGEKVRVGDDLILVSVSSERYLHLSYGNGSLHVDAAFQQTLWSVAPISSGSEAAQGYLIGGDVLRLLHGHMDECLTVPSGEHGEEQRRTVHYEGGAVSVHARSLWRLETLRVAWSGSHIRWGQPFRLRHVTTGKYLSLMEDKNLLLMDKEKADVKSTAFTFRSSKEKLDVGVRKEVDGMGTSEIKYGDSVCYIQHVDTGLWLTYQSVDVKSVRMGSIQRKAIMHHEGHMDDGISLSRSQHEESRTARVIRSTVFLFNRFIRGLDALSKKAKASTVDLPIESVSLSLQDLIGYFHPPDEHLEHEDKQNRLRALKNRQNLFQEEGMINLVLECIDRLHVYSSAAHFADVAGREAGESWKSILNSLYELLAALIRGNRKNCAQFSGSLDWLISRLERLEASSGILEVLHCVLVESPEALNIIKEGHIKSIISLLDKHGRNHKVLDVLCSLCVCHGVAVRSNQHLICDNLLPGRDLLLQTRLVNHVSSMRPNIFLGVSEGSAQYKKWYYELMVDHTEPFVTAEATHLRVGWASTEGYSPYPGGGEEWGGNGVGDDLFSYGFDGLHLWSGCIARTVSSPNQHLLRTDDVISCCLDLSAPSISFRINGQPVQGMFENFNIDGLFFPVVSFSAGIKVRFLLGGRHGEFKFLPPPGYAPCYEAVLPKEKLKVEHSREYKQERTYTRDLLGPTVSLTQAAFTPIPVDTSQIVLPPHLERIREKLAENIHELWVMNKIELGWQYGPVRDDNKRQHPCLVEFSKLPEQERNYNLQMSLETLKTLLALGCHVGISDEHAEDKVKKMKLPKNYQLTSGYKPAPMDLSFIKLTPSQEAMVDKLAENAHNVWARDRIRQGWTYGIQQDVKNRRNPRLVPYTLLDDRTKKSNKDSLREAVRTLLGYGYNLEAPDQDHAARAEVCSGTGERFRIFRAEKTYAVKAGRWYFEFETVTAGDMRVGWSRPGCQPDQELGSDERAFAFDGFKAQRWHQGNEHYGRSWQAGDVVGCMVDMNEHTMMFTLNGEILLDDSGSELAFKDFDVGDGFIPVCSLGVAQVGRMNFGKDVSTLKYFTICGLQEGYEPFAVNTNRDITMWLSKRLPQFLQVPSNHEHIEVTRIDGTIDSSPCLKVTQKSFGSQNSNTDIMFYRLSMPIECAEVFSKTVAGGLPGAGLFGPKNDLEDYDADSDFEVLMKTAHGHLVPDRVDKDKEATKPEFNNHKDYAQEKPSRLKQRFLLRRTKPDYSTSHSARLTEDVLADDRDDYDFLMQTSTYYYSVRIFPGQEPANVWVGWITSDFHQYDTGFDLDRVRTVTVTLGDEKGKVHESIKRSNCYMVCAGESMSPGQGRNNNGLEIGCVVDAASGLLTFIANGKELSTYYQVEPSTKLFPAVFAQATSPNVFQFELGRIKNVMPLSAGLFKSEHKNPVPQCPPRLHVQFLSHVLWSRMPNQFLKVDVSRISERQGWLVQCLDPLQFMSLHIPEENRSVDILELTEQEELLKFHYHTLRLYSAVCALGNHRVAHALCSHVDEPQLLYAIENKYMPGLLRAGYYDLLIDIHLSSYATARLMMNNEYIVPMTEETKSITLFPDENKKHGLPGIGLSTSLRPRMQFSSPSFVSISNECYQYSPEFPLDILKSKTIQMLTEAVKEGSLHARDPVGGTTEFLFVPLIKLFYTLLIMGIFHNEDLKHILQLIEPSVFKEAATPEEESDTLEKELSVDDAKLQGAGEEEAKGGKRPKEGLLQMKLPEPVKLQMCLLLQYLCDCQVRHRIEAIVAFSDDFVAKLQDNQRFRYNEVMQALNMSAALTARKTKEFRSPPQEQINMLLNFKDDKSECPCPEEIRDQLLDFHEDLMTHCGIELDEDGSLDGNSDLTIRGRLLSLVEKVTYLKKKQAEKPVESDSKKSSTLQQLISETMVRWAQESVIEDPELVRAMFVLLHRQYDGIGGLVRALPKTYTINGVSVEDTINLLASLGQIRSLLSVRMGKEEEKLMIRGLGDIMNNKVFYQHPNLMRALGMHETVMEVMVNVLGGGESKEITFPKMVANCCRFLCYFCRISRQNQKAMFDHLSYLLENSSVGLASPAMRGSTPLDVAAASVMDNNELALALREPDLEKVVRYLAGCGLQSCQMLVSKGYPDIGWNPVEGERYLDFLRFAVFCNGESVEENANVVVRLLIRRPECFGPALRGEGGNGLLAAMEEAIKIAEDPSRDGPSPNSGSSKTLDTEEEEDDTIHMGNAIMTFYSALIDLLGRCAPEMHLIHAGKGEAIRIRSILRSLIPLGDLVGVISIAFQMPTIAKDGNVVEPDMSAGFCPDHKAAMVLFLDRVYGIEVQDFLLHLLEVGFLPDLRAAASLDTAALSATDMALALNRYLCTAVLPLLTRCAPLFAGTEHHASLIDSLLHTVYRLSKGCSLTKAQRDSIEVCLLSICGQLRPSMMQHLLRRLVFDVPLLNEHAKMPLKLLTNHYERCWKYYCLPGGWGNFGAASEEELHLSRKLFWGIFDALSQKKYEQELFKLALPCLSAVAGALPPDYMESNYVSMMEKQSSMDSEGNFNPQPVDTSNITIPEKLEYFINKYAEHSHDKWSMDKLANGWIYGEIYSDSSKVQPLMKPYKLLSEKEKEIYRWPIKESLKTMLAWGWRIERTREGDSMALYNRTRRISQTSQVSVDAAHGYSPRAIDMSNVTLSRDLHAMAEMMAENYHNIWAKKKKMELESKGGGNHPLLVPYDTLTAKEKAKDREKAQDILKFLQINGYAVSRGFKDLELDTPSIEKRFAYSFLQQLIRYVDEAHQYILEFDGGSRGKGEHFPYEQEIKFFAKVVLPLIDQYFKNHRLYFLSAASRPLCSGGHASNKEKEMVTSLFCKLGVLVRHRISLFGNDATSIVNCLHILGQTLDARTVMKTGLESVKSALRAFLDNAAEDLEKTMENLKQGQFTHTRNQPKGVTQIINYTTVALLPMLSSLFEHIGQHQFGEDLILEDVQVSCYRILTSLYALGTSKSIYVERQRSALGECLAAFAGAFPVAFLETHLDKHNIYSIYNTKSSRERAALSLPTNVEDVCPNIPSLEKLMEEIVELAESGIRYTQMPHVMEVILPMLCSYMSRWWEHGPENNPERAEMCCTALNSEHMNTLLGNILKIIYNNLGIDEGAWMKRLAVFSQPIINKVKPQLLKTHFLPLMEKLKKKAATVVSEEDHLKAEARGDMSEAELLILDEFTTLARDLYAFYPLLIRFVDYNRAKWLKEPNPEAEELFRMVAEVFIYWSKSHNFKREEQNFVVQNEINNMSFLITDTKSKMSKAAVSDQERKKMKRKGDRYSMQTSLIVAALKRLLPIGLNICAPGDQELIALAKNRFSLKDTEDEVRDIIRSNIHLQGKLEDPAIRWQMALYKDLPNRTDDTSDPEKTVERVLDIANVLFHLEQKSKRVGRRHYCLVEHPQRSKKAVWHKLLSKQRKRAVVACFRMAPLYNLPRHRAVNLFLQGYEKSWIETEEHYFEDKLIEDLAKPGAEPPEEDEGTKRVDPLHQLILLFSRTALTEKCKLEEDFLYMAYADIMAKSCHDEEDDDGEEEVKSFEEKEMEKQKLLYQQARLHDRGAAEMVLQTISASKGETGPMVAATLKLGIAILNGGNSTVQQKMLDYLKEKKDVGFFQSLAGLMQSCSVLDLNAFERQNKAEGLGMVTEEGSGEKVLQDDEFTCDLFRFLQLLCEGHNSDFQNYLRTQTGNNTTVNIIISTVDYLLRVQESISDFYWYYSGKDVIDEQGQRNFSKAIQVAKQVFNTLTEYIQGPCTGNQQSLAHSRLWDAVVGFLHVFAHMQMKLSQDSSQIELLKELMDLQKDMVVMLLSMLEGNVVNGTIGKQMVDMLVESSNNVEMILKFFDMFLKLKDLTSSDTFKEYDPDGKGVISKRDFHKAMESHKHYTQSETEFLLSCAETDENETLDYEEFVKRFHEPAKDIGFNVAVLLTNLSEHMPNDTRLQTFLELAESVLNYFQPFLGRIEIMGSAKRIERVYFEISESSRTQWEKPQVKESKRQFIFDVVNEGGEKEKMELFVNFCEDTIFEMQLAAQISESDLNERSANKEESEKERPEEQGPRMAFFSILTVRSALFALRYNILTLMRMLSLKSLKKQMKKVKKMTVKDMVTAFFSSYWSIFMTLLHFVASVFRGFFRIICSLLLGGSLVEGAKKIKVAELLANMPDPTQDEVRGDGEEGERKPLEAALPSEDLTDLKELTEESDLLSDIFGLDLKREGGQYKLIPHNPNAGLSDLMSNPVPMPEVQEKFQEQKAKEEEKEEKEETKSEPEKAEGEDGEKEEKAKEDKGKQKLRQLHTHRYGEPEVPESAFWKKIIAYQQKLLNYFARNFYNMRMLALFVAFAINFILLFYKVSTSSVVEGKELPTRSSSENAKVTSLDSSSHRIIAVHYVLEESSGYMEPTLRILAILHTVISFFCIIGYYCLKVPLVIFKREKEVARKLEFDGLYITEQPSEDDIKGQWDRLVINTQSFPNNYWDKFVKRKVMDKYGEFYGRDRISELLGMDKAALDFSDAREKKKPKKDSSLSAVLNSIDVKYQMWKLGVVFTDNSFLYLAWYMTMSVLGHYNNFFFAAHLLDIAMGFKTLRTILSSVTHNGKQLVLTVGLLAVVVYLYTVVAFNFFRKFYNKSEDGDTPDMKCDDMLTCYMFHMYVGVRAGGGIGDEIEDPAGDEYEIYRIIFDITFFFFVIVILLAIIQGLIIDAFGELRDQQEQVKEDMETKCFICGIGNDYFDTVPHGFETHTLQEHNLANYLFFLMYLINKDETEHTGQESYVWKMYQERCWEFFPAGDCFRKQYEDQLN
Target sequence in this assay (P68106 whole entry, further chain): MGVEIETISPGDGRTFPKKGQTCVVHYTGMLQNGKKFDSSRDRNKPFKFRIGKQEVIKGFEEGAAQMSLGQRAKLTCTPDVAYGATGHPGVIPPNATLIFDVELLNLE

[3] = target: T1, RyR2; experiment: biochemical
Target sequence in this assay (Q92736 whole entry): as the sequence (Q92736 whole entry) above
Target sequence in this assay (P68106 whole entry, further chain): as the sequence (P68106 whole entry, further chain) above

[4] = Pharmacokinetics by intravenous (IV) dosing (tail vein); format: in vivo, rat
Procedure: Additional PK parameters were obtained using IV dosing to complement the oral PK data and to determine absolute oral bioavailability. Compounds were administered via tail vein injection and blood samples were obtained at 30 min, 1 h, 4 h and 12h. The drug concentration in plasma was determined via UPLC/MS.
(§1) The concentration results were used to estimate PK parameters (i.e. C0, T1/2, Vd, AUCinf) based on noncompartmental distribution and mono-exponential concentration decay. The half-life value thus obtained was also used to estimate the AUCinf for the PO dosing.

[5] = Morning and evening plasma and brain exposure after 1-week dosing in drinking water; format: in vivo; settings: rat; for Brain / Plasma: 1 week
[6] = Brain exposure: brain and plasma concentrations 4 h after oral administration; format: in vivo; settings: Sprague-Dawley, rat, PO 20 mg/kg; for concentration at 4 h: terminal sampling
Procedure: (§2) Analytical instrument: Waters Acquity Class H UPLC equipped with Waters SQ3100 mass detector.
Brain and plasma concentrations 4 h after oral administration (corresponding to Tmax in the first experiment) were determined via UPLC/MS, and the corresponding brain-to-plasma ratio values were calculated.

[7] = Oral bioavailability and pharmacokinetics in blood plasma after oral gavage; format: in vivo, Sprague-Dawley rats; settings: Sprague-Dawley; for Cmax: po
Procedure: as §2
1). Initial non-terminal assessment of compound oral bioavailability and pharmacokinetics in blood plasma.
Sprague-Dawley rats were dosed via oral gavage (20 mg/kg); blood samples were drawn at 30 min, 1 h, 4 h and 12 h and plasma concentrations were determined via UPLC/MS. The 12-hour exposure (AUC12, Table 2) was determined via trapezoidal integration of the observed concentrations.
as §1

[8] = target: T1, RyR2; experiment: Calstabin2 binding to RyR2 immunoprecipitated from human HD cortex lysate (immunoblot); settings: FIG. 1
Procedure: Brain microsomes were prepared from human hippocampus and cortex samples taken from HD patients. Control samples were from patients that were negative in neuropathological diagnoses.
RyR2 was immunoprecipitated from Cortex lysate (+/−various concentrations of Compound 2) with an RyR2 specific antibody (2 μg) in 0.5 ml of a modified RIPA buffer (50 mM Tris-HCl pH 7.2 0.9% NaCl, 5.0 mM NaF, 1.0 mM Na3VO4, 1% Triton-X100, and protease inhibitors) and left overnight at 4° C. The immune complexes were incubated with protein A Sepharose beads at 4° C. for 1 h and the beads are washed three times with RIPA buffer. […] Immunoblots were developed using antibodies against RyR and Calstabin.

[9] = test system: RyR; experiment: RyR mediated calcium leak from human HD cortex microsomes (Fluo-4, thapsigargin); format: biochemical; settings: thapsigargin 3 μM, FIG. 3
Procedure: Human cortex Microsomes (5 μg/ml) were diluted into a 20 mM HEPES buffer (pH 7.2) containing 7 mM NaCl, 1.5 mM MgCl2, 120 mM K-gluconate, 5 mM K-phosphate, 8 mM K-phosphocreatine, 1 μM EGTA and 2 μM CaCl2) mixed with 3 μM Fluo-4 and added to multiple wells of a 96-well plate. Calcium (Ca^2+) loading of the microsomes was initiated by adding 1 mM ATP. After Ca^2+ uptake, 3 μM thapsigargin was added. (A)—Representative traces of Ca^2+ leak from Human cortex microsomes induced by addition of thapsigargin (3 μM). (B)—Ca^2+ leak was calculated as the percent increase in signal after addition of thapsigargin. Data (mean±SEM) analysis was performed by Student t-test (n=2 for each group) **P<0.01.

[10] = 5 mg/kg/day in drinking water, 7:00AM, 5 mg/kg/day
[11] = 5 mg/kg/day in drinking water, 7:00PM, 5 mg/kg/day
[12] = 20 mg/kg/day in drinking water, 7:00AM, 20 mg/kg/day
[13] = 20 mg/kg/day in drinking water, 7:00PM, 20 mg/kg/day

SMILES: O=C(N1CCNCC1)N1CCSc2cccc(I)c2C1 [Compound 10, (6-iodo-2,3-dihydrobenzo[f][1,4]thiazepin-4(5H)-yl)(piperazin-1-yl)methanone]
inhibition at 10 µM [1]: 74%

SMILES: O=C(N1CCNCC1)N1CCSc2cccc(OC(F)(F)F)c2C1 [Compound 8, piperazin-1-yl(6-(trifluoromethoxy)-2,3-dihydrobenzo[f][1,4]thiazepin-4(5H)-yl)methanone]
inhibition at 10 µM [1]: 80%

SMILES: COc1ccc2c(c1)CN(C)CCS2 [Compound S107, reference compound]
Calstabin2 binding to HD microsomes, concentration dependence [2]: increase Calstabin2 binding to HD microsomes in a concentration dependent manner

SMILES: O=C(N1CCNCC1)N1CCSc2cccc(C(F)(F)F)c2C1 [Compound 5, piperazin-1-yl(6-(trifluoromethyl)-2,3-dihydrobenzo[f][1,4]thiazepin-4(5H)-yl)methanone]
inhibition at 10 µM [1]: 92%

SMILES: O=C(N1CCNCC1)N1CCSc2cc(F)c(F)cc2C1 [Compound 6, (7,8-difluoro-2,3-dihydrobenzo[f][1,4]thiazepin-4(5H)-yl)(piperazin-1-yl)methanone]
inhibition at 10 µM [1]: 71%

SMILES: O=C(N1CCNCC1)N1CCSc2ccc(OC(F)(F)F)cc2C1 [Compound 4, piperazin-1-yl(7-(trifluoromethoxy)-2,3-dihydrobenzo[f][1,4]thiazepin-4(5H)-yl)methanone]
inhibition at 10 µM [1]: 142%

SMILES: O=C(N1CCNCC1)N1CCSc2cc(C(F)(F)F)ccc2C1 [Compound 1, piperazin-1-yl(8-(trifluoromethyl)-2,3-dihydrobenzo[f][1,4]thiazepin-4(5H)-yl)methanone]
inhibition at 10 µM [1]: 95 to 96%

SMILES: O=C(N1CCNCC1)N1CCSc2cccc(Br)c2C1 [Compound 9, (6-bromo-2,3-dihydrobenzo[f][1,4]thiazepin-4(5H)-yl)(piperazin-1-yl)methanone]
inhibition at 10 µM [1]: 89%

SMILES: O=C(N1CCNCC1)N1CCSc2c(cccc2C(F)(F)F)C1 [Compound 3, piperazin-1-yl(9-(trifluoromethyl)-2,3-dihydrobenzo[f][1,4]thiazepin-4(5H)-yl)methanone]
inhibition at 10 µM [1]: 85%

SMILES: O=C(N1CCNCC1)N1CCSc2cccc(Cl)c2C1 [Compound 7, (6-chloro-2,3-dihydrobenzo[f][1,4]thiazepin-4(5H)-yl)(piperazin-1-yl)methanone]
inhibition at 10 µM [1]: 89%

EC50 [3]: 100 nM
Vd ([4]; plasma, rat, IV bolus 2 mg/kg): 10.9 L/kg
half-life ([4]; plasma, rat, IV bolus 2 mg/kg, read-out: T½ (converted)): 2.77 h
AUC(0-inf) ([4]; rat plasma, IV bolus 2 mg/kg): 736 ng·h/mL
concentration at 30 min ([4]; rat plasma, IV bolus 2 mg/kg, 30 min, read-out: C 1st time (30 min)): 180 ng/mL
F % PO/IV bolus ([4]; rat, PO 20 mg/kg vs IV bolus 2 mg/kg): 37%
Brain [5, 10]: 0.50 ± 0.12 μg/g and 1.44 ± 0.36 μM
Plasma [5, 10]: 0.09 ± 0.03 μg/mL and 0.25 ± 0.08 μM
Brain [5, 11]: 0.12 ± 0.08 μg/g and 0.36 ± 0.22 μM
Plasma [5, 11]: 0.02 ± 0.01 μg/mL and 0.07 ± 0.02 μM
Brain [5, 12]: 3.05 ± 0.71 μg/g and 8.82 ± 2.05 μM
Plasma [5, 12]: 0.42 ± 0.02 μg/mL and 1.22 ± 0.05 μM
Brain [5, 13]: 1.20 ± 0.96 μg/g and 3.48 ± 2.79 μM
Plasma [5, 13]: 0.20 ± 0.12 μg/mL and 0.58 ± 0.36 μM
brain exposure after a week of dosing ([5]; 1 week in drinking water): has brain exposure
concentration at 4 h ([6]; brain, read-out: Brain C4 h): 2160 ng/g and 6.25 µM
Kp at 4 h ([6]; brain/plasma): 5.1
concentration at 4 h ([6]; plasma, read-out: Plasma C4 h): 420 ng/mL and 1.22 µM
AUC(0-inf) ([7]; rat, plasma, oral, 20 mg/kg): 2730 ng·h/mL
Cmax ([7]; rat, plasma, 20 mg/kg, rat plasma, PO 20 mg/kg, Table 4 summary, read-out: Cmax C4 h): 320 ng/mL
Cmax ([7]; rat, plasma, 20 mg/kg, rat plasma, PO 20 mg/kg, read-out: Cmax): 210 ng/mL and 610 nM
Tmax ([7]; rat plasma, PO 20 mg/kg): 4 h
AUC(0-t) ([7]; rat plasma, PO 20 mg/kg, 12 h, trapezoidal, read-out: AUCt (12 h)): 2090 ng·h/mL and 6.06 µM·h
SMILES: O=C(N1CCNCC1)N1CCSc2ccc(C(F)(F)F)cc2C1 [Compound 2, piperazin-1-yl(7-(trifluoromethyl)-2,3-dihydrobenzo[f][1,4]thiazepin-4(5H)-yl) methanone]
plasma and tissue exposure levels, morning versus evening ([5]; 1 week in drinking water): higher in the morning than in the evening
Calstabin2 binding to HD microsomes, concentration dependence [2]: increase Calstabin2 binding to HD microsomes in a concentration dependent manner
Calstabin2/RyR2 binding in HD brain microsome lysates [8]: improves Calstabin2/RyR2 binding; also recorded: improves Calstabin rebinding to RyR2
inhibition at 10 µM [1]: 86 to 94%
calcium leak from HD microsomes [9]: decreases calcium leak from HD microsomes
